Measured values: patent US10800732B2, “Substituted malonamides and their use as antibacterial drugs” (National Taiwan University, priority 2015, dated 2020)
≈ marks a conversion by molar mass, not a printed value. Where “and” joins values, the source holds several entries; their conditions need not be identical. Equal values may be shown once. Read-outs that look alike come from different tables or passages of the source.

What was measured:
[1] = test system: S. epidermidis ATCC 12228; test: MIC, S. epidermidis ATCC 12228; format: cell-based; details: S. epidermidis ATCC 12228
K-562 = test: Antiproliferative activity, K-562; format: cell-based, human; details: for IC50: K-562, antiproliferative
Method: (§1) In addition to the antibacterial activities, the cytotoxic effects of these malonate derivatives on human cancer cell lines were also assessed.

[2] = test system: clinical isolated VISA strain; test: MIC, VISA; format: cell-based, vancomycin-intermediate Staphylococcus aureus; details: VISA, clinical isolate
C. elegans = test: Toxic effects on E. coli (OP50)-fed C. elegans; format: in vivo, Caenorhabditis elegans; details: escalating doses in S-medium
Method: (§2) FIG. 2. SC5005 protects C. elegans from S. aureus infection. Effect of SC78 and SC5005 on the survival of MSSA- or MRSA-infected C. elegans was assessed. The glp-4(bn2) C. elegans were fed on E. coli (OP50), MSSA (ATCC 29213) or MRSA (ATCC 33592) followed by exposing to SC78 or SC5005 at concentrations of 2-, 4-, 8-folds of respective MIC in S-medium. The survival of worms was monitored daily till the end of the study. The survival of animals fed with E. coli (OP50) and receiving DMSO only was served as a control to show the normal life-span of C. elegans.
Meanwhile, the toxic effects of these agents on C. elegans were also assessed. E. coli (OP50)-fed worms were exposed to escalating doses of SC78 and SC5005 in S-medium followed by monitoring of their survival daily.

Clinical isolated MRSAs = test: MIC90, one hundred clinical isolated MRSA strains; format: cell-based, methicillin-resistant Staphylococcus aureus; details: one hundred clinical isolated MRSA from NTUH, concentration that inhibits 90% of strains tested
HT-29 = test: Antiproliferative activity, HT-29; format: cell-based, human; details: for IC50: HT-29, antiproliferative
Method: as §1

[3] = test system: Enterococcus faecalis ATCC 19433; test: MIC, Enterococcus faecalis; format: cell-based
S. aureus ATCC 12598 = test: MIC, S. aureus ATCC 12598; format: cell-based, Staphylococcus aureus
[4] = test system: S. saprophyticus (ATCC 15305); test: MIC, S. saprophyticus; format: cell-based
[5] = test system: Enterococcus faecium ATCC 35667; test: MIC, Enterococcus faecium ATCC 35667; format: cell-based
VR-E. faecium = test: MIC, VR-E. faecium; format: cell-based, vancomycin resistant Enterococcus faecium
[6] = test system: Clostridium difficile R20291; test: MIC, Clostridium difficile R20291; format: cell-based
VRSA (SJC1200) = test: MIC, VRSA; format: cell-based, vancomycin-resistant Staphylococcus aureus; details: VRSA (SJC1200)
[7] = test system: Enterococcus faecium ATCC 19434; test: MIC, Enterococcus faecium ATCC 19434; format: cell-based
S. aureus NCTC 8325 [8] = test: Time-kill kinetics; format: cell-based, Staphylococcus aureus; details: for reduction in CFU: 24-h treatment period; for bactericidal / bacteriostatic classification: killing over 99.9% of inoculum within 24 hours
S. aureus NCTC 8325 [9] = format: cell-based, Staphylococcus aureus; details: 200-day exposure to sub-lethal concentrations
[10] = test system: Clostridium difficile 630; test: MIC, Clostridium difficile 630; format: cell-based
S. aureus NCTC 8325 [11] = test: MIC, S. aureus NCTC 8325 (CLSI broth microdilution / agar dilution); format: cell-based, Staphylococcus aureus
[12] = test system: S. intermedius (ATCC 29663); test: MIC, S. intermedius; format: cell-based
[13] = test system: Listeria monocytogenes ATCC 19113; test: MIC, Listeria monocytogenes; format: cell-based
[14] = test system: Corynebacterium diphtheriae ATCC 11913; test: MIC, Corynebacterium diphtheriae; format: cell-based
[15] = test system: Mycobacterium tuberculosis H37Ra; test: MIC, Mycobacterium tuberculosis; format: cell-based
MRSA ATCC 49476 = test: MIC, MRSA ATCC 49476; format: cell-based, methicillin-resistant Staphylococcus aureus; details: MRSA ATCC 49476
[16] = test system: Streptococcus pyogenes ATCC 19615; test: MIC, Streptococcus pyogenes; format: cell-based
[17] = test system: Bacillus cereus ATCC 11778; test: MIC, Bacillus cereus; format: cell-based
MRSA SCCmec VT = test: MIC, MRSA SCCmec VT; format: cell-based, methicillin-resistant Staphylococcus aureus
[18] = test system: S. epidermidis ATCC 35984; test: MIC, S. epidermidis ATCC 35984; format: cell-based
[19] = test system: S. haemolyticus (ATCC 29970); test: MIC, S. haemolyticus; format: cell-based
HEK-293 = test: Antiproliferative activity, HEK-293; format: cell-based, human; details: for IC50: HEK-293, antiproliferative
Method: as §1

MRSA ATCC 33592 = test: MIC, MRSA ATCC 33592; format: cell-based, methicillin-resistant Staphylococcus aureus; details: MRSA ATCC 33592
S. hominis (ATCC 27844) = test: MIC, S. hominis; format: cell-based
[20] = test system: MSSA ATCC 29213 or MRSA ATCC 33592; test: Survival of MSSA- or MRSA-infected C. elegans; format: in vivo, Caenorhabditis elegans; details: 2- to 8-folds of MIC in S-medium, versus DMSO control
Method: as §2
Caenorhabditis elegans has been broadly used as a model host for the studies of human infectious diseases, including infections caused by S. aureus. To investigate whether SC78 and SC5005 can suppress the infection of S. aureus in C. elegans, worms were infected with MSSA ATCC 29213 or MRSA ATCC 33592 followed by exposing to individual drugs at concentrations of 2- to 8-folds of respective MIC in S-medium. Control groups were treated with DMSO at concentration equal to that of drug treated groups (final concentration, 0.1%).

[21] = S. epidermidis (ATCC 35984), Table 3
[22] = Staphylococcus aureus, read-out: MIC
[23] = Clostridioides difficile, read-out: MIC

SMILES: O=C(Nc1ccc(Cl)c(C(F)(F)F)c1)C(CCCl)C(=O)Nc1ccc(Cl)c(C(F)(F)F)c1 [SC5005]
- MIC [1]: 0.5 µg/mL (≈ 0.958 µM)
- IC50 (K-562): 20.23 µg/mL (≈ 38.8 µM)
- MIC [2]: 0.5 µg/mL (≈ 0.958 µM)
- survival of worms fed with OP50 (toxicity) (C. elegans): didn't affect the survival
- MIC90 (Clinical isolated MRSAs): 0.5 mg/L and 0.5^b mg/L
- IC50 (HT-29): 14.56 µg/mL (≈ 27.9 µM)
- MIC [3]: 0.5 µg/mL (≈ 0.958 µM)
- MIC (S. aureus ATCC 12598): 0.5 µg/mL (≈ 0.958 µM)
- MIC [4]: 0.5 µg/mL (≈ 0.958 µM)
- MIC [5]: 0.5 µg/mL (≈ 0.958 µM)
- MIC (VR-E. faecium): 0.5 µg/mL (≈ 0.958 µM)
- MIC [6]: 0.5 µg/mL (≈ 0.958 µM)
- MIC (VRSA (SJC1200)): 0.5 µg/mL (≈ 0.958 µM)
- MIC [7]: 1 µg/mL (≈ 1.92 µM)
- reduction in CFU (S. aureus NCTC 8325 [8]; 4-folds of MIC): 99.91%
- reduction in CFU (S. aureus NCTC 8325 [8]; 8-folds of MIC): 99.95%
- bactericidal / bacteriostatic classification (S. aureus NCTC 8325 [8]): bactericidal
- resistance after consecutive exposure (S. aureus NCTC 8325 [9]): no resistance was observed
- MIC [10]: 0.5 µg/mL (≈ 0.958 µM)
- MIC (S. aureus NCTC 8325 [11]; MSSA NCTC 8325, Table 6): 0.5 µg/mL (≈ 0.958 µM)
- MIC (S. aureus NCTC 8325 [11]; S. aureus (NCTC 8325), Table 3): 0.5 µg/mL (≈ 0.958 µM)
- MIC (S. aureus NCTC 8325 [11]; S. aureus NCTC 8325): 0.5 µg/mL (≈ 0.958 µM)
- MIC (S. aureus NCTC 8325 [11]; S. aureus NCTC 8325, Table 2): 0.5 µg/mL (≈ 0.958 µM)
- MIC [12]: 1 µg/mL (≈ 1.92 µM)
- MIC [13]: 0.125 µg/mL (≈ 0.24 µM)
- MIC [14]: 0.5 µg/mL (≈ 0.958 µM)
- MIC [15]: 16 µg/mL (≈ 30.7 µM)
- MIC (MRSA ATCC 49476): 0.5 µg/mL (≈ 0.958 µM)
- MIC [16]: 0.5 µg/mL (≈ 0.958 µM)
- MIC [17]: 0.5 µg/mL (≈ 0.958 µM)
- MIC (MRSA SCCmec VT; MRSA SCCmec VT): 0.5 µg/mL (≈ 0.958 µM)
- MIC (MRSA SCCmec VT; SCCmec VT, Table 6): 0.5 µg/mL (≈ 0.958 µM)
- MIC [18, 21]: 0.5 µg/mL (≈ 0.958 µM)
- MIC ([18]; S. epidermidis ATCC 35984): 0.5 µg/mL (≈ 0.958 µM)
- MIC [19]: 1 µg/mL (≈ 1.92 µM)
- IC50 (HEK-293): 16.79 µg/mL (≈ 32.2 µM)
- MIC (MRSA ATCC 33592): 0.5 µg/mL (≈ 0.958 µM)
- MIC (MRSA ATCC 33592; Table 6): 0.5 µg/mL (≈ 0.958 µM)
- MIC (S. hominis (ATCC 27844)): 0.25 µg/mL (≈ 0.479 µM)
- survival of MSSA- or MRSA-infected worms [20]: significant increase in the mean survival

SMILES: O=C(Nc1ccc(Cl)c(C(F)(F)F)c1)Nc1ccc(Cl)c(C(F)(F)F)c1 [SC78]
- MIC ([1]; Staphylococcus epidermidis, ATCC12228, read-out: MIC): 0.25 µg/mL (≈ 0.599 µM)
- IC50 (K-562; Homo sapiens, K562, read-out: IC50): 4.73 µg/mL (≈ 11.3 µM)
- Selectivity ratio (K-562; IC50 (K-562)/MIC against S. aureus): 18.92
- MIC [2, 22]: 0.25 µg/mL (≈ 0.599 µM)
- survival of worms fed with OP50 (toxicity) (C. elegans): significantly decreased
- MIC90 (Clinical isolated MRSAs; Staphylococcus aureus, read-out: MIC90): 0.25 µg/mL (≈ 0.599 µM)
- IC50 (HT-29; Homo sapiens, read-out: IC50): 4.51 µg/mL (≈ 10.8 µM)
- Selectivity ratio (HT-29; IC50 (HT-29)/MIC against S. aureus): 18.04
- MIC ([3]; ATCC19433, read-out: MIC): 0.25 µg/mL (≈ 0.599 µM)
- MIC (S. aureus ATCC 12598; Staphylococcus aureus, ATCC12598, read-out: MIC): 0.25 µg/mL (≈ 0.599 µM)
- MIC ([4]; Staphylococcus saprophyticus, ATCC15305, read-out: MIC): 0.25 µg/mL (≈ 0.599 µM)
- MIC ([5]; ATCC35667, read-out: MIC): 0.25 µg/mL (≈ 0.599 µM)
- MIC (VR-E. faecium; Enterococcus faecium, read-out: MIC): 0.25 µg/mL (≈ 0.599 µM)
- MIC [6, 23]: 0.25 µg/mL (≈ 0.599 µM)
- MIC (VRSA (SJC1200); [22]): 0.25 µg/mL (≈ 0.599 µM)
- MIC ([7]; ATCC19434, read-out: MIC): 0.5 µg/mL (≈ 1.2 µM)
- reduction in CFU (S. aureus NCTC 8325 [8]; 8-folds of MIC): over 99.9%
- bactericidal / bacteriostatic classification (S. aureus NCTC 8325 [8]): bactericidal
- resistance after consecutive exposure (S. aureus NCTC 8325 [9]): no resistance was observed
- MIC [10, 23]: 0.5 µg/mL (≈ 1.2 µM)
- MIC (S. aureus NCTC 8325 [11]; S. aureus (NCTC 8325), Table 3): 0.25 µg/mL (≈ 0.599 µM)
- MIC (S. aureus NCTC 8325 [11]; S. aureus NCTC 8325, Table 2): 0.25 µg/mL (≈ 0.599 µM)
- MIC (S. aureus NCTC 8325 [11]; Staphylococcus aureus, NCTC8325, S. aureus NCTC 8325, read-out: MIC): 0.25 µg/mL (≈ 0.599 µM)
- MIC ([12]; read-out: MIC): 1 µg/mL (≈ 2.4 µM)
- MIC ([13]; ATCC19113, read-out: MIC): 0.0625 µg/mL (≈ 0.15 µM)
- MIC ([14]; ATCC11913, read-out: MIC): 0.25 µg/mL (≈ 0.599 µM)
- MIC ([15]; read-out: MIC): 1 µg/mL (≈ 2.4 µM)
- MIC (MRSA ATCC 49476; [22]): 25 µg/mL (≈ 59.9 µM)
- MIC ([16]; ATCC19615, read-out: MIC): 0.25 µg/mL (≈ 0.599 µM)
- MIC ([17]; ATCC11778, read-out: MIC): 0.25 µg/mL (≈ 0.599 µM)
- MIC (MRSA SCCmec VT; Staphylococcus aureus, MRSA SCCmec VT, read-out: MIC): 0.25 µg/mL (≈ 0.599 µM)
- MIC [18, 21]: 0.25 µg/mL (≈ 0.599 µM)
- MIC ([18]; Staphylococcus epidermidis, ATCC35984, S. epidermidis ATCC 35984, read-out: MIC): 0.25 µg/mL (≈ 0.599 µM)
- MIC ([19]; Staphylococcus haemolyticus, ATCC29970, read-out: MIC): 0.5 µg/mL (≈ 1.2 µM)
- IC50 (HEK-293; Homo sapiens, HEK293, read-out: IC50): 1.13 µg/mL (≈ 2.71 µM)
- Selectivity ratio (HEK-293; IC50 (HEK-293)/MIC against S. aureus): 4.52
- MIC (MRSA ATCC 33592; [22]): 0.25 µg/mL (≈ 0.599 µM)
- MIC (S. hominis (ATCC 27844); Staphylococcus hominis, ATCC27844, read-out: MIC): 0.25 µg/mL (≈ 0.599 µM)
- survival of MSSA- or MRSA-infected worms [20]: no significant difference was observed in the survival
